From PMC4385830, “Group I Paks as therapeutic targets in NF2-deficient meningioma” (Oncotarget, 2015)

Columns and labels:
Experiment in all cases: Kinase selectivity, Z'-LYTE
Assay type in all cases: biochemical
[1] = molecular target: T1, ADRBK1 (GRK2) (Homo sapiens, UniProt P25098)
T1 construct: purchased Invitrogen (Life Technologies) SelectScreen Z'-LYTE
T1 sequence (P25098 1-689): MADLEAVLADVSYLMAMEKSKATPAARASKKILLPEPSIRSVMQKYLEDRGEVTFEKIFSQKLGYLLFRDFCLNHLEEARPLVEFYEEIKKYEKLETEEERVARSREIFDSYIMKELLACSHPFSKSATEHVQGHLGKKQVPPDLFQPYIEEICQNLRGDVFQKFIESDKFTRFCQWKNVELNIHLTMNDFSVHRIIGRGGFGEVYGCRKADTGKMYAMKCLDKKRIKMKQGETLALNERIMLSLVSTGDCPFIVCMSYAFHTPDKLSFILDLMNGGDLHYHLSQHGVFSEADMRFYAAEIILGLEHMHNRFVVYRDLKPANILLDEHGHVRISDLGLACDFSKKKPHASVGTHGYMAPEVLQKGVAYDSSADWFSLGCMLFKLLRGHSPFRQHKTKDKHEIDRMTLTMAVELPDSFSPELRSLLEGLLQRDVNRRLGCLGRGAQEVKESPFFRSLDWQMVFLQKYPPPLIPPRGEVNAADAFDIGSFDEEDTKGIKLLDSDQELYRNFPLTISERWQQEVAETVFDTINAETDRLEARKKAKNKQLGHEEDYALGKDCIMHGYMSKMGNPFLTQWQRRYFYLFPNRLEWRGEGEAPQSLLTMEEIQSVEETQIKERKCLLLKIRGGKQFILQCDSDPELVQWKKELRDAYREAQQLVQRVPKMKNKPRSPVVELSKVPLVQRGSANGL
Method: (§1) Kinase selectivity was assessed using a commercial service that employs a fluorescence-based, coupled-enzyme assay based on the differential sensitivity of phosphorylated and non-phosphorylated peptides to proteolytic cleavage (Invitrogen, Z'-LYTE®). This assay uses recombinant protein kinases and assay mixed optimized for each particular kinase (http://www.lifetechnologies.com/us/en/home/life-science/drug-discovery/target-and-lead-identification-and-validation /kinasebiology/kinase-activity-assays/z-lyte.html).

[2] = molecular target: T2, CDK7/cyclin H/MNAT1 (Homo sapiens, UniProt P50613)
T2 construct: purchased Invitrogen (Life Technologies) SelectScreen Z'-LYTE
Method: as §1

[3] = molecular target: T3, FLT1 (VEGFR1) (Homo sapiens, UniProt P17948)
T3 construct: purchased Invitrogen (Life Technologies) SelectScreen Z'-LYTE
Method: as §1

[4] = molecular target: T4, JAK3 (Homo sapiens, UniProt P52333)
T4 construct: purchased Invitrogen (Life Technologies) SelectScreen Z'-LYTE
T4 sequence (P52333 1-1124): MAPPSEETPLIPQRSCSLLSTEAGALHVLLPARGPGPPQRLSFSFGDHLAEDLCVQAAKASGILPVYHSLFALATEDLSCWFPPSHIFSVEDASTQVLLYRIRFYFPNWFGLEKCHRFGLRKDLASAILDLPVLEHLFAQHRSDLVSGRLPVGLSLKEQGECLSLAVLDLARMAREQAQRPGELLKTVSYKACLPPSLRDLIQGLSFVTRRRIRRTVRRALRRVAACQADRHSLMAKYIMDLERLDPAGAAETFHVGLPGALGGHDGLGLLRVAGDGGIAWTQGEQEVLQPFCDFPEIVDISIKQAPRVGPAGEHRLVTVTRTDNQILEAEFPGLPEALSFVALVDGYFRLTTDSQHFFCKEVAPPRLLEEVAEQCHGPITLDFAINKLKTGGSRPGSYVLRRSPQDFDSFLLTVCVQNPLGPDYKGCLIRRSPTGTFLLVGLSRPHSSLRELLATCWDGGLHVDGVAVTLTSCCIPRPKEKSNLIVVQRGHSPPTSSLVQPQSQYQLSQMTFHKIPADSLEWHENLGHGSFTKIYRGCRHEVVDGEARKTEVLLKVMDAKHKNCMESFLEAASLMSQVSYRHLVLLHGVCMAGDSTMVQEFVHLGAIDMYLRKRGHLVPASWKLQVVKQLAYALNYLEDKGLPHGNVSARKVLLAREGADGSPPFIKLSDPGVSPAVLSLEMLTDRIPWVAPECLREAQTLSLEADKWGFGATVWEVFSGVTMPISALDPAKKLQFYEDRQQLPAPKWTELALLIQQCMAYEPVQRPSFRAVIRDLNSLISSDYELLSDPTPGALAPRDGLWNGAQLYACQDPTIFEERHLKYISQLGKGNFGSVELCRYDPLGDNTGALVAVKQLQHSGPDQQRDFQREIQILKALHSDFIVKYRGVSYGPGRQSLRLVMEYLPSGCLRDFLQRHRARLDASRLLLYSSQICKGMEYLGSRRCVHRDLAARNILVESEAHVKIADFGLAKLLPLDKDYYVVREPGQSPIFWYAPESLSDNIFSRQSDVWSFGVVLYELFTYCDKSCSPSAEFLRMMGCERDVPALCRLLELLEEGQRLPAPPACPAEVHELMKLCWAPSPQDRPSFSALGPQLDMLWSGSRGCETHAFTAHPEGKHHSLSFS
Method: as §1

[5] = molecular target: T5, MAPK8 (JNK1) (Homo sapiens, UniProt P45983)
T5 construct: purchased Invitrogen (Life Technologies) SelectScreen Z'-LYTE
Method: as §1

[6] = molecular target: T6, MET (cMet) (Homo sapiens, UniProt P08581)
T6 construct: purchased Invitrogen (Life Technologies) SelectScreen Z'-LYTE
Method: as §1

[7] = molecular target: T7, P1K3C2B (P13K-C2-beta) (Homo sapiens, UniProt O00750)
T7 construct: purchased Invitrogen (Life Technologies) SelectScreen Z'-LYTE
Method: as §1

[8] = molecular target: T8, P1K3CA (p110 gamma) (Homo sapiens, UniProt P48736)
T8 construct: purchased Invitrogen (Life Technologies) SelectScreen Z'-LYTE
Method: as §1

[9] = molecular target: T9, SRC (Homo sapiens, UniProt P12931)
T9 construct: purchased Invitrogen (Life Technologies) SelectScreen Z'-LYTE
Method: as §1

[10] = molecular target: T10, STK22D (TSSK1) (Homo sapiens, UniProt Q9BXA7)
T10 construct: purchased Invitrogen (Life Technologies) SelectScreen Z'-LYTE
T10 sequence (Q9BXA7 1-367): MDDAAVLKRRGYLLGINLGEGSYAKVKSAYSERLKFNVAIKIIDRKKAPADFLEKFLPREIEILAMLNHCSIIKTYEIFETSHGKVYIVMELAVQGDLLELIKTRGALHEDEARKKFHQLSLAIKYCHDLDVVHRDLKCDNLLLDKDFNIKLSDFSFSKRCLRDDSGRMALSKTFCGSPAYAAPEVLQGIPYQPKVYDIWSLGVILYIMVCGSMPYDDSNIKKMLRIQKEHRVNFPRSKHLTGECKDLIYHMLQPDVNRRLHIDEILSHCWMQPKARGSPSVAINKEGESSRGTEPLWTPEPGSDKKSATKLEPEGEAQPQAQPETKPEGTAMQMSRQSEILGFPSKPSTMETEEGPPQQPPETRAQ
Method: as §1

T9 sequence (P12931 whole entry): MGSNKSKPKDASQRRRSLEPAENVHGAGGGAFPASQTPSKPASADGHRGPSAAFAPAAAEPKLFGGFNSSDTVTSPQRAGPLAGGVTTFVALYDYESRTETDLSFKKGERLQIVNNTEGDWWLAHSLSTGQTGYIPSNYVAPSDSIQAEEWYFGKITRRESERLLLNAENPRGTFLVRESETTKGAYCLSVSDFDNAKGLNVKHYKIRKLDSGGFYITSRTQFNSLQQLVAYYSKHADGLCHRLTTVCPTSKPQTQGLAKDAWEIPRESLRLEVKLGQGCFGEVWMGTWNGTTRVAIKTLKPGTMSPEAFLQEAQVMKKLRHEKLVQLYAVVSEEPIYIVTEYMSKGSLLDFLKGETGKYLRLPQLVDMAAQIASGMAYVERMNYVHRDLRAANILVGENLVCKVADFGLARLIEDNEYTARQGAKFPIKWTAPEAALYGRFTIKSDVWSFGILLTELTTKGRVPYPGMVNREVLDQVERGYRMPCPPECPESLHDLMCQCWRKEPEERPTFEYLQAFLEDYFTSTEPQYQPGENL
T3 sequence (P17948 27-1338): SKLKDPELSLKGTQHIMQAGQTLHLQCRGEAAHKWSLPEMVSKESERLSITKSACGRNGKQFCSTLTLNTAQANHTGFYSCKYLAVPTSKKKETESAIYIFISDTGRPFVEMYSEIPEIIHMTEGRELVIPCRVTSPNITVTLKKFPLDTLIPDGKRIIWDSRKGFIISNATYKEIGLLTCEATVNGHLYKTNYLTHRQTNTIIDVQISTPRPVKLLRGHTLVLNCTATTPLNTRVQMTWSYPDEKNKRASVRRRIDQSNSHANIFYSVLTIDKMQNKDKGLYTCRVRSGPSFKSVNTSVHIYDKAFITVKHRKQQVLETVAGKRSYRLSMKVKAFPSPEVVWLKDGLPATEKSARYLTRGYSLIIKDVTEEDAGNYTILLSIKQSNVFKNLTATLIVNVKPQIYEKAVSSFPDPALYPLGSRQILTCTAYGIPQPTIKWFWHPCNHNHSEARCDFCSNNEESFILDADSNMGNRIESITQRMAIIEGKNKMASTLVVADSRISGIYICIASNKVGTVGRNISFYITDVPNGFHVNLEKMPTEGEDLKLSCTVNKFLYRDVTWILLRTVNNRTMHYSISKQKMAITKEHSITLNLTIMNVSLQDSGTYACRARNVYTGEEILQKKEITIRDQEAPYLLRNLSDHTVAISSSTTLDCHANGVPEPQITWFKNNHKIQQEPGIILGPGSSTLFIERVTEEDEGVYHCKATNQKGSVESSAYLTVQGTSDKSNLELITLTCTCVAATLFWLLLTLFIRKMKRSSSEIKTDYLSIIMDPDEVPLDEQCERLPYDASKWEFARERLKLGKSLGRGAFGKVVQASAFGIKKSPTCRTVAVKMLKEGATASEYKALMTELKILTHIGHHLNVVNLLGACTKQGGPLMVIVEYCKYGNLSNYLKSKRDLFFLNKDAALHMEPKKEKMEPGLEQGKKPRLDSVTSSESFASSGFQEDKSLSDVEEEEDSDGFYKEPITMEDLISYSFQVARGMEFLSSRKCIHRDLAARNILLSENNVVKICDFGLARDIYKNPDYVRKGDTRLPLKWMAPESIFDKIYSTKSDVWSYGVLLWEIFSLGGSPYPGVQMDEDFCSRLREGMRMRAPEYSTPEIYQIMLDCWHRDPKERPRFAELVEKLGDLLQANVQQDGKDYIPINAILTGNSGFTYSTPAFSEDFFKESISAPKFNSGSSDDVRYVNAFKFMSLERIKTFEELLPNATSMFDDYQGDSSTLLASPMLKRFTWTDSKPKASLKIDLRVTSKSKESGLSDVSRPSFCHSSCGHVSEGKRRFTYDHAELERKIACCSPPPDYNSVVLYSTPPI
T2 sequence (P50613 whole entry): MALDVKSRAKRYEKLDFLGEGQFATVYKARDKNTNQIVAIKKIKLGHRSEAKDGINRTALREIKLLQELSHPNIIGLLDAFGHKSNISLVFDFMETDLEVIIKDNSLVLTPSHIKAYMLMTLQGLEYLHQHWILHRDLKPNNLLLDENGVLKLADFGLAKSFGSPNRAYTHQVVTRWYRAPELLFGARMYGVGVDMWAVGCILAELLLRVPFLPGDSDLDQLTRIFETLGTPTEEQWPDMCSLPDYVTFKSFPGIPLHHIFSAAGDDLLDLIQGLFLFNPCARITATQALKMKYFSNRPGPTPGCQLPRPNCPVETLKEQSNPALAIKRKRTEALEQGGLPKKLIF
T2 sequence (P51946 whole entry partner): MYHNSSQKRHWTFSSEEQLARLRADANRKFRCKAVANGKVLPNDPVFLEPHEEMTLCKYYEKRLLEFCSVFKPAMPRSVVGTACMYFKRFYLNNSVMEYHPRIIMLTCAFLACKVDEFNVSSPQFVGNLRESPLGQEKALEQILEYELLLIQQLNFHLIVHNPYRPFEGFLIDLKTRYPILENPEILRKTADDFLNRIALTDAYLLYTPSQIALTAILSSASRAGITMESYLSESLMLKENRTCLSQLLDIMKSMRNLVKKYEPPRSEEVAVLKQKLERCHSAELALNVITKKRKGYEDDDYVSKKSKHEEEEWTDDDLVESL
T2 sequence (P51948 whole entry partner): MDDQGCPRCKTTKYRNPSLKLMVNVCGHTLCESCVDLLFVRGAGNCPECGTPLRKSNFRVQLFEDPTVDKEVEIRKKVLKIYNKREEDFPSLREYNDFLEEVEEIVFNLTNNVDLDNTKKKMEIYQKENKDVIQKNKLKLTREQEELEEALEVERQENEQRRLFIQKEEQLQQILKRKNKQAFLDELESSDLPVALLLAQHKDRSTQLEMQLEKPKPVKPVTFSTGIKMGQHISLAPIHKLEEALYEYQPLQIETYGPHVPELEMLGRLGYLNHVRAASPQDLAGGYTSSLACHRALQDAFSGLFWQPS
T8 sequence (P48736 whole entry): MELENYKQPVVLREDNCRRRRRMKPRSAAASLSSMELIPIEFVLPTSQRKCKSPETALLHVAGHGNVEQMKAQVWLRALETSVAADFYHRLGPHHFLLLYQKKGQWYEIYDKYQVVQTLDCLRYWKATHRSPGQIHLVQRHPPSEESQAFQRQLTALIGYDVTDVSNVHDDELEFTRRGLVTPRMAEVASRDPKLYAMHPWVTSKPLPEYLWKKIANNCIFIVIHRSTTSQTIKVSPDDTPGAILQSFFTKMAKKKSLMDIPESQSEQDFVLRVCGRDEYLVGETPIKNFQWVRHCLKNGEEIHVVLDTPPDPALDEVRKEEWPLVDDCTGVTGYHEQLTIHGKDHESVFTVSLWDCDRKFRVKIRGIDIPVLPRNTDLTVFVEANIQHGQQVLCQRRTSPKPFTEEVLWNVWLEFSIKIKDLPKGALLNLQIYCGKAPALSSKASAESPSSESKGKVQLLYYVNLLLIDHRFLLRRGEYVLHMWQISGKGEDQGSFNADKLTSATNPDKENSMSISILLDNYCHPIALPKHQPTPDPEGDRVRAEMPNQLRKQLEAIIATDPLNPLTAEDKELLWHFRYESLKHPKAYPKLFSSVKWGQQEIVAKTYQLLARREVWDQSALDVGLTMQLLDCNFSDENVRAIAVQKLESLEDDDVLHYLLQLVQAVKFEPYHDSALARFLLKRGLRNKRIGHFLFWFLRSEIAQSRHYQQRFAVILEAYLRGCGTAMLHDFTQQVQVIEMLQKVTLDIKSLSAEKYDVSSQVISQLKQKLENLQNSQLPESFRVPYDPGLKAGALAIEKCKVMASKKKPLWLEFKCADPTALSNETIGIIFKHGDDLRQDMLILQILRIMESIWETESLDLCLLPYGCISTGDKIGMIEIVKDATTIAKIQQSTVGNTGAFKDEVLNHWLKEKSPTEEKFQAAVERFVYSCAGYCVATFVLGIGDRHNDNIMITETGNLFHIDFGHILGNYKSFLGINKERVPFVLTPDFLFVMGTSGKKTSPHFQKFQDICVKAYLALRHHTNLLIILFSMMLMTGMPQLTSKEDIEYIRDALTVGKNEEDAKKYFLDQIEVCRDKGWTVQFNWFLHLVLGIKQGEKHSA
T5 sequence (P45983 whole entry): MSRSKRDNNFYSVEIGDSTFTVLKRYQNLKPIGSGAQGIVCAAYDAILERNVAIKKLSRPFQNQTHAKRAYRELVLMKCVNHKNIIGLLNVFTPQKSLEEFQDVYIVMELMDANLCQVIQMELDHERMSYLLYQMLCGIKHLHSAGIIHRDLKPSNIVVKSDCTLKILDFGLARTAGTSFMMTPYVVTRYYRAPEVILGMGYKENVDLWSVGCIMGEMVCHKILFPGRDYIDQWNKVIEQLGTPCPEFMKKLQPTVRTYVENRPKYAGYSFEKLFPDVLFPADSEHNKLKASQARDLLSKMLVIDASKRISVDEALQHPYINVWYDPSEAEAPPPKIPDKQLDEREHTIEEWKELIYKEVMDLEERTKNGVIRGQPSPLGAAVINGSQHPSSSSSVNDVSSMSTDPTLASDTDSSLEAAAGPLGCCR

% inhibition of activity [1] | % inhibition of activity [2] | % inhibition of activity [3] | % inhibition of activity [4] | % inhibition of activity [5] | % inhibition of activity [6] | % inhibition of activity [7] | % inhibition of activity [8] | % inhibition of activity [9] | % inhibition of activity [10] | SMILES
0% | −3% | 14% | 0% | 79% | 36% | 2% | 0% | 16% | 12% | CCn1c(=O)c(-c2ccc(-c3cncc(C)n3)cc2Cl)cc2cnc(NCCC3CCN(C)CC3)nc21 [Frax1036]
10% | 96% | 5% | 10% | 9% | 19% | 8% | 0% | 74% | 90% | Cc1nc(Nc2[nH]nc3c2CN(C(=O)N[C@H](CN(C)C)c2ccccc2)C3(C)C)c2sccc2n1 [PF3758309, reference compound]

SMILES | % inhibition of activity [1] | % inhibition of activity [2] | % inhibition of activity [3] | % inhibition of activity [4] | % inhibition of activity [5] | % inhibition of activity [6] | % inhibition of activity [7] | % inhibition of activity [8] | % inhibition of activity [9] | % inhibition of activity [10]
CCn1c(=O)c(-c2ccc(-c3noc(C)n3)cc2Cl)cc2cnc(Nc3ccc(C4CCN(C)CC4)cc3)nc21 [Frax716] | 10% | 2% | 37% | 3% | 30% | 38% | −1% | 0% | 97% | 5%
